Patent US4059692A, “Treating impaired consciousness with glutamyl-L-histidyl-L-prolinamide” (Takeda Chemical Industries, Ltd., priority 1975, dated 1977)
Counter-ions that a name gives are not always drawn.

System: human patient with impaired consciousness due to functional or organic damage of the brain
Experiment: Clinical administration of TRH tartrate to human patients with impaired consciousness (case reports 1-8)
Assay type: in vivo
Details: for motor/behavioural recovery: 200 μg free TRH i.m. daily
From the text: The method of the present invention is applicable to human patients with impaired consciousness due to functional or organic damage to the brain, such as cranial trauma, brain surgery, cerebrovascular disorder, brain tumors and the like.
According to the present invention, TRH may be employed as the free base or in the form of a physiologically acceptable salt such as an acid addition salt e.g. a mineral acid salt (hydrochloride, sulphate, etc.) or an organic acid salt (acetate, tartrate, etc.). TRH tartrate is especially convenient for the administration. TRH or its salts are generally administered by the parenteral routes such as intravenous or intramuscular routes to the patients. The therapeutic dosage depends upon the route and upon the severity of impaired consciousness in each patient, and it may generally be chosen from within the range of from about 100 to about 5,000 μg. in terms of free TRH per adult human patient per day, more particularly from about 500 to about 5,000 μg. in terms of free TRH per adult human patient per day, when parenterally e.g. intravenously or intramuscularly administered. In case of those patients having swallowing capacity TRH or its salts may be orally administered. In this case, the dosage may be of course chosen from within the abovementioned range, but it may be increased over the said range, for example, up to about 150 mg. in terms of free TRH per adult human patient per day.
Child: Postoperative state of haematoma of right frontal lobe caused by cranial trauma.
Before administration, the patient was able to respond to only painful stimuli with a verbal expression of pain, otherwise being unconcious with a slight palpebral opening. Such conscious state lasted without modification for a further 10 days. The daily intramuscular injection of 292 μg. of TRH tartrate (dissolved in 0.8 ml of a sterile physiological saline; 200 μg. in terms of free TRH) successively for 10 days.
person: Postoperative state of metastatic brain tumor on right frontal and pariental lobes.
Craniotomy performed for the reduction of the intracranial pressure was followed by the gradual deterioration of consciousness. Therefore, TRH tartrate in the daily dose of 730 μg. (dissolved in 20 ml of 20% glucose; 500 μg. in terms of free TRH) was administered by intravenous drip infusion of 13 days.
Child: Brain contusion due to cranial trauma.
The child suffered from bodily contusion and loss of consciousness by collision on their bicycle with a train. At the time of hospitalization, the bilateral facilitation of the knee-jerk reflex was associated with the positive Babinski's reflex bilaterally. The daily administration of 730 μg.
Person: Post-operative state of glioblastoma.
The surgical resection of glioblastoma by cranitomy was gradually followed by a worsening of the general condition associated with impaired consciousness for 3 months.
person: Traumatic protracted coma.
The patient had been thrown from a motor bike and disturbance of consciousness had become apparent immediately after the accident. There was movement of the extremities and grimacing of the face in response to pain stimulus. The disturbance of consciousness continued thereafter and the disturbance had become fixed for 2 years prior to medication with TRH. TRH tartrate in the daily dose of 7,300 μg. (dissolved in 200 ml of electrolyte solution; 5,000 μg. in terms of free TRH) was administered by intravenous drip infusion. […] They also began to answer friends vocally with "Ah", "Ah". […] The medication was terminated at the 10th day.
person: Aneurysm of left cerebral artery.
After an attack of subarachnoid hemorrhage, it was noted that they had lost accessibility with people around them and volition, and that they had been in an abstract state. This condition had lasted for 1 month. TRH tartrate in the daily dose of 3,650 μg. […]

[1] = Case 3, 500 μg free TRH i.v. drip daily for 10 days

## NC(=O)[C@@H]1CCCN1C(=O)[C@H](Cc1cnc[nH]1)NC(=O)[C@@H]1CCC(=O)N1 [TRH tartrate]
Case 1: postoperative haematoma of right frontal lobe, 292 μg TRH tartrate (200 μg free TRH) intramuscular daily for 10 days, 5th day of treatment
  state of consciousness (response to interview): prompt verbal reply with a smile to the interview by the doctor
Case 1, 7th day
  motor/behavioural recovery: able to ride and sit by themself on a wheel-chair
Case 1, 8th day (the next day)
  motor/behavioural recovery: able to go to a stool with support
Case 1, one day after termination of the 10-day daily administration
  motor/behavioural recovery and conversation: able to sit by themself on the bed and to have a conversation with others
Case 2: postoperative metastatic brain tumor, 730 μg TRH tartrate (500 μg free TRH) intravenous drip infusion daily, 13 days, 2nd day
  conscious state: significant improvement of the conscious state
Case 2, 500 μg free TRH i.v. drip daily, 2nd day
  orientation ability: improvement of orientation ability
Case 2, after termination of the TRH treatment
  persistence of improved conscious state: persist for about one month after the termination of the TRH treatment
Case 3: brain contusion, 730 μg TRH tartrate (500 μg free TRH) i.v. drip daily for 10 days, 2nd day
  Babinski's reflex: sluggish appearance of Babinski's reflex
[1]
  impaired consciousness: began to be improved from the 4th day
  impaired orientation: markedly improved
Case 3, 500 μg free TRH i.v. drip daily, 3rd day
  Babinski's reflex: disappearance on the 3rd day
Case 3, after treatment
  final outcome: recovered without any neurological abnormality
Case 3, one day after termination of the daily administration
  motor recovery: able to walk
Case 4: post-operative glioblastoma, 1,460 μg TRH tartrate (1,000 μg free TRH) i.v. drip daily for 10 days
  palpebral opening and eyeball movement: prolonged the time-length of the palpebral opening from the 4th day
Case 4, 1,000 μg free TRH i.v. drip daily for 10 days
  consciousness: remarkable improvement of the consciousness
Case 5: traumatic protracted coma fixed for 2 years, 7,300 μg TRH tartrate (5,000 μg free TRH) i.v. drip daily, two days after start
  response to vocal questioning: began to respond with a sound to vocal questioning and turn the eyes towards the questioner
Case 5, 5,000 μg free TRH i.v. drip daily, 10 days treatment period
  side effects: No side effects were observed
Case 5, 5,000 μg free TRH i.v. drip daily, from about the fifth day
  level of consciousness: definite improvement in the level of consciousness
Case 6: aneurysm of left cerebral artery, subarachnoid hemorrhage, 3,650 μg TRH tartrate (2,500 μg free TRH) i.v. drip daily for 10 days, third day
  abstract state: abstract state disappeared
Case 6, 2,500 μg free TRH i.v. drip daily for 10 days
  side effects: No noteworthy side effects were observed
Case 6, 2,500 μg free TRH i.v. drip daily, seventh day
  state of consciousness: restored close to normal
Case 7: sequelae of head trauma, 8.76 mg TRH tartrate (6 mg free TRH) orally daily for 2 weeks, from the third day
  behavior and spontaneous activity: normalization of behavior and spontaneous activity
Case 7, 6 mg free TRH orally daily for 2 weeks
  side effects: No side effects were noted
Case 7, 6 mg free TRH orally daily, after 1 week
  conversation with people: began to actively converse with people around them
Case 7, after medication was terminated at 2 weeks
  persistence of improvement in level of consciousness: improvement in the level of consciousness was retained
Case 8: sequelae of head trauma, 17.52 mg TRH tartrate (12 mg free TRH) orally daily, after 2 weeks
  spontaneous activity / volition: began to actively watch television or play the pinball machine
Case 8, 12 mg free TRH orally daily, after 2 weeks
  agnosia and disorientation: little change in the agnosia and disorientation
Case 8, 12 mg free TRH orally daily, during and after termination of medication
  side effects: No side effects have been observed
Case 8, medication terminated after 2 weeks, after 3 months
  condition after termination of medication: no marked change in the condition of the patient

## NC(=O)[C@@H]1CCCN1C(=O)[C@H](Cc1c[nH]cn1)NC(=O)[C@@H]1CCC(=O)N1 [TRH, L-pyroglutamyl-L-histidyl-L-prolinamide]
Case 5, 5,000 μg (free TRH) per day, case had not responded to conventional treatment
  impaired consciousness (overall): significant improvement of impaired consciousness
